How the values were obtained:
[1] = tested on: fetal human dermal fibroblasts (HDF-f); assay: RNA-seq RNAge validation of age inducers in fetal fibroblasts; format: cell-based; conditions: 24 h, relative to DMSO; for RNAge score (relative transcriptional age): Alvocidib 10 μM, 5-Iodotubercin 10 μM, Mitoxantrone 1.1 μM
Experimental: Fibroblast maintenance and culture. Fibroblasts were maintained in DMEM-F12 containing GlutaMAX,15% heat inactivated FBS and 1× Pen/Strep and passaged using Trypsin. For validation of […] aging score by RNA-seq old (GM04204; Coriell) or young (HDF-f; […] Compounds for experimental validation of […]-based score. All validation experiments were performed after 24 h of compound treatment. For rejuvenation experiments in fibroblasts Mocetinostat (10 μM; Selleck […]), Resveratrol (0.37 μM; Selleck […]) and Radicicol (1.1 μM; Tocris 1589), DMSO (1:1000) and EtOH (1:1000; vehicle control for Radicicol) were applied to old primary fibroblasts (Coriell GM4204). Age induction experiments in young fibroblasts (HDF-f; ScienCell #2300) were performed with 5-Iodotubercin (10 μM; Selleck […]), Alvocidib (10 μM; Selleck […]) and Mitoxantrone (1.1 μM; Selleck […]) with DMSO (1:1000) used as a control. Compounds used for age induction experiments in PSC-derived neurons were: […] Selleck […]) with DMSO (1:1000) used as a control. RNA Extraction. Cell were harvested, lysed, and stored in Trizol (Life Technologies) until further processing. For primary frontal cortex or substantia nigra a total of 10 mg of brain tissue from was lysed in Trizol aided by a tissue dounce. For experimental validation […] compounds RNA was extracted by the core using […] Micro Kit (QIAGEN 1071023). In all other cases RNA was extracted using the Zymo Direct-zol RNA Microprep Kit according to the manufacturer's instructions. RNA-seq analysis. Reads were aligned to the hg19 Human transcripts using STAR (version 2.5.21b) using default parameters and resulting bam files were sorted and indexed using samtools. Gene counts were obtained using featureCounts (version 1.4.3) from sorted bam files using uniquely mapped reads. Genes with no expression counts in any sample were discarded. Differential gene expression analysis was performed using DESeq2 R package that normalize gene count data to transcription per million (TPM), and then detect differentially expressed genes (DEG) between Young and Old groups with ([…] score calculation. The aging score is applied on a gene expression test data where two conditions are compared for expression changes in the aging signature, group1 has n samples and group2 has m samples. For each gene in a tissue specific marker set Ĝk, we can calculate t-statistic between two groups based on Welch's two-sample t test as follow: where the normalizing factor Nk is the number of overlapping genes between the test dataset and Ĝk. The aging score, Aging scorek, represents the overall magnitude of expression difference between two sample groups based on the expression trends. This score is calculated using the tissue-specific aging marker set Mk. It indicates the aging difference between the two groups as well as distinguishes which group is older. To mitigate the influence of a small number of markers with large changes gene expression between group1 and group2 of the test data (i.e. large t-score values), we introduced the “Percentage score” as a measure of agreement between the expression trends of the aging markers and the given dataset. The calculation of the Percentage score involves the product of each gene between Tk and Mk: Ai=ti×Li, where i∈Ĝk. A positive Ai indicates a consistent expression change of gene i in both the aging signature and in the comparison between group1 and group2 in the test dataset. Conversely, a negative Ai indicates an opposite expression trend. Therefore, the “Percentage score” is defined as: […]

[2] = tested on: HDF fibroblasts; assay: Hallmarks of age by high content microscopy in fibroblasts; format: cell-based, human; conditions: 24 h
Experimental: Compounds for experimental validation of L1000-based score. All validation experiments were performed after 24 h of compound treatment. For rejuvenation experiments in fibroblasts Mocetinostat (10 μM; Selleck S1396), Resveratrol (0.37 μM; Selleck S1396) and Radicicol (1.1 μM; Tocris 1589), DMSO (1:1000) and EtOH (1:1000; vehicle control for Radicicol) were applied to old primary fibroblasts (Coriell GM4204). Age induction experiments in young fibroblasts (HDF-f; ScienCell #2300) were performed with 5-Iodotubercin (10 μM; Selleck S8314), Alvocidib (10 μM; Selleck S1230) and Mitoxantrone (1.1 μM; Selleck S2485) with DMSO (1:1000) used as a control. Compounds used for age induction experiments in PSC-derived neurons were: Fludarabine (10 μM; Selleck S1491) Vinorelbine (10 μM; sc-205885) and AGK-2 (0.04 μM; Selleck S7577) with DMSO (1:1000) used as a control.
Assaying Hallmarks of Age by high content microscopy. HDF fibroblasts were plated at a density of 4500/cm^2 and cultured for 48 h before drug treatment. Neurons were plated at a density of 100,000/cm^2 and cultured for 12 days before the application of candidate age inducers. After 24 h of treatment culture wells were washed 2× in PBS then fixed with 4% paraformaldehyde. For immunocytochemistry cells were permeabilized in PBS+0.3% Triton and blocked in 5% normal goat serum. All antibody primary incubations were performed overnight at 4 degrees and secondary antibodies at RT for 1h. Primary antibodies used in this study were: BAG3 (abcam; ab47124), CAV1 (Thermo; MA3-600), H3K9me3 (abcam; ab176916), LAP2 (BD Bioscience; 611000), p21 (CST; 2947), yH2AX (EMD Millipore; 05-636). Immunocytochemistry images were acquired using an Operetta (PerkinElmer, Waltham, MA) microscope and quantified using the harmony high content analysis software. For both fibroblasts and neurons 4 independent batches of cells were assayed in triplicate (n=12). Fluorescence intensity was normalized to DMSO, and ordinary one-way ANOVA used to compare test conditions to the DMSO control (Prism 9.5.1). […]

[3] = tested on: PSC-derived neurons; assay: RNA-seq RNAge validation of age inducers in PSC-derived neurons; format: cell-based, human; conditions: 24 h, relative to DMSO, Vinorelbine 10 μM, AGK-2 0.04 μM
Experimental: Generation of human cortical neurons. Cortical neurons were generated by directed differentiation of human embryonic stem cells (H9; WA-09) maintained in E8 on vitronectin coated plates. […] After 24 h the E8 medium was replaced with E6 containing SB431542 (10 μM), LDN193189 (100 nM) and XAV939 ([…]). After three days the XAV939 was removed from the differentiation media and cells were cultured for an additional seven days in E6 containing SB431542 (10 μM), LDN193189 (100 nM). The neuroepithelium was maintained for an additional 10 days in neurobasal supplemented with N2 and B27. Media was changed daily throughout the differentiation. At DIV 20 the cultures were dissociated using Accutase to generate a single cell suspension and plated out for subsequent experiments in Neurobasal medium supplemented with B27, L-glutamine, BDNF, CAMP, ascorbic acid and GDNF (neural maintenance media). DAPT was also added to the culture medium from DIV20 to DIV30. Compounds for experimental validation of […]-based score. […] Reads were aligned to the hg19 Human transcripts using STAR (version 2.5.21b) using default parameters and resulting bam files were sorted and indexed using samtools. Gene counts were obtained using featureCounts (version 1.4.3) from sorted bam files using uniquely mapped reads. […] This score is calculated using the tissue-specific aging marker set Mk. […]

[4] = tested on: old primary fibroblasts (Coriell GM04204); assay: RNA-seq RNAge validation of rejuvenating compounds in old primary fibroblasts; format: cell-based, human; conditions: 0.37 μM, 24 h
Experimental: Fibroblast maintenance and culture. Fibroblasts were maintained in DMEM-F12 containing GlutaMAX,15% heat inactivated FBS and 1× Pen/Strep and passaged using Trypsin. For validation of […] aging score by RNA-seq old (GM04204; Coriell) or young (HDF-f; […] Compounds for experimental validation of […]-based score. All validation experiments were performed after 24 h of compound treatment. For rejuvenation experiments in fibroblasts Mocetinostat (10 μM; Selleck […]), Resveratrol (0.37 μM; Selleck […]) and Radicicol (1.1 μM; Tocris 1589), DMSO (1:1000) and EtOH (1:1000; vehicle control for Radicicol) were applied to old primary fibroblasts (Coriell GM4204). Age induction experiments in young fibroblasts (HDF-f; ScienCell #2300) were performed with 5-Iodotubercin (10 μM; Selleck […]), Alvocidib (10 μM; Selleck […]) and Mitoxantrone (1.1 μM; Selleck […]) with DMSO (1:1000) used as a control. Compounds used for age induction experiments in PSC-derived neurons were: […] Selleck […]) with DMSO (1:1000) used as a control. RNA Extraction. […] Reads were aligned to the hg19 Human transcripts using STAR (version 2.5.21b) using default parameters and resulting bam files were sorted and indexed using samtools. Gene counts were obtained using featureCounts (version 1.4.3) from sorted bam files using uniquely mapped reads. […] This score is calculated using the tissue-specific aging marker set Mk. […]

SMILES | pattern of induction of the RNAge subscores [1] | RNAge score (relative transcriptional age) [1] | nuclear area [2] | nuclear roundness [2] | BAG3 fluorescence intensity ([2]; relative to DMSO) | LAP2 fluorescence intensity ([2]; relative to DMSO) | RNAge score / aging scores across the aging signatures [3] | other results
Nc1ncnc2c1c(I)cn2[C@@H]1O[C@H](CO)[C@@H](O)[C@H]1O [5-iodotubercin] | very similar pattern of induction | increased | increase | loss | decreased | loss | – | –
N#C/C(=C\c1ccc(-c2cc(Cl)ccc2Cl)o1)C(=O)Nc1cccc2ncccc12 [AGK-2] | – | – | – | – | – | – | no obvious transcriptional effect or impact | –
CN1CC[C@H](c2c(O)cc(O)c3c(=O)cc(-c4ccccc4Cl)oc23)[C@H](O)C1 [Alvocidib] | very similar pattern of induction | increased | increase | loss | decreased | loss | – | –
O=C1c2c(O)ccc(O)c2C(=O)c2c(NCCNCCO)ccc(NCCNCCO)c21 [Mitoxantrone] | only showed induced aging in the ‘Pan’ and ‘pF’ aging categories | increased | – | loss | decreased | loss | – | H3K9me3 immunoreactivity ([2]; relative to DMSO): decreased; p21 immunoreactivity ([2]; relative to DMSO): increased; γH2AX immunoreactivity ([2]; relative to DMSO): increased
Oc1ccc(C=Cc2cc(O)cc(O)c2)cc1 [Resveratrol] | – | – | – | – | – | – | – | fibroblast aging score bubble size (percent of genes that change in the expected direction) [4]: very small bubble size
CCC1=C[C@@H]2CN(C1)Cc1c([nH]c3ccccc13)[C@@](C(=O)OC)(c1cc3c(cc1OC)N(C)[C@H]1[C@@](O)(C(=O)OC)[C@H](OC(C)=O)[C@]4(CC)C=CCN5CC[C@]31[C@@H]54)C2 [Vinorelbine] | – | – | – | – | – | – | only a slight, albeit consistent, induction | –

— patent US20260125647A1, “AGE-MODULATING COMPOUNDS AND METHODS FOR MAKING AGE-MODULATED CELLS” (MEMORIAL SLOAN-KETTERING CANCER CENTER, priority 2023, published 2026)
